Results from patent US10633350B2, “Diphenyl derivatives and uses thereof” (NOVARTIS AG, priority 2017, dated 2020).

system: FoxO3a; test: FoxO3a inhibition assay (GFP-FoxO3a nuclear to cytoplasmic translocation) in U2OS GFP-FoxO3a H212R reporter cells; format: cell-based; details: Homo sapiens, 0.5 h, serum starved overnight, 30 minutes compound treatment, ratio of nuclear to cytosolic GFP intensity, AC50 = concentration that results in 50% activation or inhibition, read-out: FoxO AC50
Method: Phosphorylation of Akt on S473 and FoxO3a nuclear to cytoplasmic translocation were used as readouts of PI3K/Akt/mTOR pathway activation downstream of growth factor signaling.
Reporter cell line. U2OS GFP-FoxO3a H212R reporter cell line was established by transducing U2OS cells with the retroviral plasmid pLEGFP-C1 containing FoxO3a H212R transgene and selecting for G418 resistant clones.
Reporter assay. U2OS GFP-FoxO3a H212R cells were plated in 384-well plates at 4000 cells per well in 30 microliters of McCoy's 5A medium containing 10% FBS. On day 1 the cells were washed with serum free medium and serum starved overnight. On day 2 the cells were treated with different doses of the compounds for 30 minutes, fixed with 4% Paraformaldehyde for 1 hour and stained with Phospho-AKT (Ser473) antibody (Cell Signaling Technology, catalog #4060) overnight at 4° C. After nuclei staining with Hoechst 33342 (Life Technologies, catalog # H3570) the plates were imaged with InCell 2000 (GE Healthcare Bio-Sciences). FoxO3a inhibition activity is calculated as the ratio of nuclear to cytosolic GFP intensity in percent. Akt activation is measured as the total cellular intensity of Phospho-Akt antibody staining in percent. DMSO control is set as 0% activity.

Compound	AC50
Cc1nc(C(N)=O)nn1-c1ccc(Cc2ccc(-c3ccc(CN4CCC(C(F)(F)F)CC4)cc3)cc2)cc1 [Example 39-35]	145 nM
Cc1nc(C(N)=O)nn1-c1ccc(Cc2ccc(-c3ccc(O[C@@H]4CCN(C)C4)cc3)cc2)cc1 [Example 63, (R)-5-methyl-1-(4-((4′-((1-methylpyrrolidin-3-yl)oxy)-[1,1′-biphenyl]-4-yl)methyl)phenyl)-1H-1,2,4-triazole-3-carboxamide]	11 nM
Cc1nc(C(N)=O)nn1-c1ccc(Cc2ccc(-c3ccc(CN4CCN[C@@H](CO)C4)cc3)cc2)cc1 [Example 39-12]	181 nM
Cc1nc(C(N)=O)nn1-c1ccc(Cc2ccc(-c3ccc(CN4CCCC5(COC5)C4)cc3)cc2)cc1 [Example 38-6]	74 nM
Cc1nc(C(N)=O)nn1-c1ccc(Cc2ccc(-c3ccc(CN4C[C@@H]5[C@@H](CO)[C@@H]5C4)cc3)cc2)cc1 [Example 39-34]	10 nM
Cc1nc(C(N)=O)nn1-c1ccc(Cc2ccc(-c3ccc(CN4CC(CO)C4)cc3)cc2)cc1 [Example 39-36]	164 nM
Cc1nc(C(N)=O)nn1-c1ccc(Cc2ccc(-c3ccc(CN4CCC5(COC5)C4)cc3)cc2)cc1 [Example 38-1, 1-(4-((4′-((2-oxa-6-azaspiro[3.4]octan-6-yl)methyl)-[1,1′-biphenyl]-4-yl)methyl)phenyl)-5-methyl-1H-1,2,4-triazole-3-carboxamide]	2 nM
Cc1nc(C(N)=O)nn1-c1ccc(Cc2ccc(-c3ccc(CN4CCC(S(C)(=O)=O)C4)cc3)cc2)cc1 (stereo not shown) [Example 39-14]	54 nM
Cc1nc(C(N)=O)nn1-c1ccc(Cc2ccc(-c3ccc(CN4CC(O)C4)cc3)cc2)cc1 [Example 39-8]	864 nM
Cc1nc(C(N)=O)nn1-c1ccc(Cc2ccc(-c3ccc(CN4CCN5CCCCC5C4)cc3)cc2)cc1 (stereo not shown) [Example 39-21]	60 nM
Cc1nc(C(N)=O)nn1-c1ccc(Cc2ccc(-c3ccc(CN4CC(C)(O)C4)cc3)cc2)cc1 [Example 39-24]	406 nM
Cc1nc(C(N)=O)nn1-c1ccc(Cc2ccc(-c3ccc(CN4CCN[C@@H](C)C4)nc3)cc2)cc1 [Example 36, (S)-5-methyl-1-(4-(4-(6-((3-methylpiperazin-1-yl)methyl)pyridin-3-yl)benzyl)phenyl)-1H-1,2,4-triazole-3-carboxamide]	183 nM
Cc1nc(C(N)=O)nn1-c1ccc(Cc2ccc(-c3ccc(CN4CCCN(C)CC4)cc3)cc2)cc1 [Example 39-28]	39 nM
Cc1cc(C(N)=O)nn1-c1ccc(Cc2ccc(-c3ccc(C(C)(C)CO)cn3)cc2)cc1 [Example 57, 1-(4-(4-(5-(1-hydroxy-2-methylpropan-2-yl)pyridin-2-yl)benzyl)phenyl)-5-methyl-1H-pyrazole-3-carboxamide]	49 nM
Cc1nc(C(N)=O)nn1-c1ccc(Cc2ccc(-c3ccc(CN4CC[C@@H](F)C4)cc3)cc2)cc1 [Example 39-13]	79 nM
Cc1nc(C(N)=O)nn1-c1ccc(Cc2ccc(C3CC4(CC(C(=O)N5CCNCC5)C4)C3)cc2)cc1 (stereo not shown) [Example 44, 5-methyl-1-(4-(4-(6-(piperazine-1-carbonyl)spiro[3.3]heptan-2-yl)benzyl)phenyl)-1H-1,2,4-triazole-3-carboxamide]	134 nM
Cc1nc(C(N)=O)nn1-c1ccc(Cc2ccc(-c3ccc(CN4C[C@H](O)[C@@H](O)C4)cc3)cc2)cc1 [Example 39-29]	180 nM
Cc1nc(C(N)=O)nn1-c1ccc(Cc2ccc(-c3ccc(CN4CCCC(C)(O)C4)cc3)cc2)cc1 (stereo not shown) [Example 39-16]	56 nM
Cc1cc(C(N)=O)nn1-c1ccc(Cc2ccc(-c3ccc(C(=O)N4CCNCC4)cn3)cc2)cc1 [Example 27, 5-methyl-1-(4-(4-(5-(piperazine-1-carbonyl)pyridin-2-yl)benzyl)phenyl)-1H-pyrazole-3-carboxamide]	213 nM
Cc1nc(C(N)=O)nn1-c1ccc(Cc2ccc(-c3ccc(CN4CCCC[C@H]4CO)cc3)cc2)cc1 [Example 39-22]	98 nM
Cc1nc(C(N)=O)nn1-c1ccc(Cc2ccc(-c3ccc(CN4CC(F)(F)C4)cc3)cc2)cc1 [Example 39-33]	42 nM
Cc1nc(C(N)=O)nn1-c1ccc(Cc2ccc(-c3ccc(CN4CCC5CN(C)CC54)cc3)cc2)cc1 (stereo not shown) [Example 39-15]	5 nM
Cc1nc(C(N)=O)nn1-c1ccc(Cc2ccc(-c3ccc(C(C)(C)NCC(C)(C)O)cc3)cc2)cc1 [Example 64, 1-(4-((4′-(2-((2-hydroxy-2-methylpropyl)amino)propan-2-yl)-[1,1′-biphenyl]-4-yl)methyl)phenyl)-5-methyl-1H-1,2,4-triazole-3-carboxamide]	62 nM

Compound	AC50
Cc1cc(C(N)=O)nn1-c1ccc(Cc2ccc(-c3ccc(C(C)(C)O)nn3)cc2)cc1 [Example 58, 1-(4-(4-(6-(2-hydroxypropan-2-yl)pyridazin-3-yl)benzyl)phenyl)-5-methyl-1H-pyrazole-3-carboxamide]	225 nM
Cc1nc(C(N)=O)nn1-c1ccc(Cc2ccc(-c3ccc(CN4C[C@@H](C)N[C@@H](C)C4)cc3)cc2)cc1 [Example 39-19]	65 nM
Cc1nc(C(N)=O)nn1-c1ccc(Cc2ccc(-c3ccc(CN4CCC(F)(F)CC4)cc3)cc2)cc1 [Example 39-20]	140 nM
Cc1nc(C(N)=O)nn1-c1ccc(Cc2ccc(-c3ccc(CN4CCC(S(C)(=O)=O)CC4)cc3)cc2)cc1 [Example 39-31]	49 nM
Cc1nc(C(N)=O)nn1-c1ccc(Cc2ccc(-c3ccc(CN4CCC(N(C)C)CC4)cc3)cc2)cc1 [Example 39-2]	5 nM
Cc1nc(C(N)=O)nn1-c1ccc(Cc2ccc(-c3ccc(CN4CCC(CO)CC4)cc3)cc2)cc1 [Example 39-23]	18 nM
Cc1nc(C(N)=O)nn1-c1ccc(Cc2ccc(-c3ccc(CN4CC5(CCCO5)C4)cc3)cc2)cc1 [Example 39-11]	241 nM
Cc1cc(C(N)=O)nn1-c1ccc(Cc2ccc(-c3ccnc(CO)c3)cc2)cc1 [Example 61, 1-(4-(4-(2-(hydroxymethyl)pyridin-4-yl)benzyl)phenyl)-5-methyl-1H-pyrazole-3-carboxamide]	187 nM
Cc1nc(C(N)=O)nn1-c1ccc(Cc2ccc(-c3ccc(CN4CCCC(C(C)(C)O)C4)cc3)cc2)cc1 (stereo not shown) [Example 39-7]	29 nM
Cc1nc(C(N)=O)nn1-c1ccc(Cc2ccc(-c3ccc(CN4C[C@H]5COC[C@H]5C4)cc3)cc2)cc1 [Example 39-26]	31 nM
Cc1cc(C(N)=O)nn1-c1ccc(Cc2ccc(C34CCC(C(=O)N5CCN(C)CC5)(CC3)CC4)cc2)cc1 [Example 43, 5-methyl-1-(4-(4-(4-(4-methylpiperazine-1-carbonyl)bicyclo[2.2.2]octan-1-yl)benzyl)phenyl)-1H-pyrazole-3-carboxamide]	17 nM
Cc1nc(C(N)=O)nn1-c1ccc(Cc2ccc(-c3ccc(CN4CCNC(C)(C)C4)cc3)cc2)cc1 [Example 39-18]	81 nM
Cc1nc(C(N)=O)nn1-c1ccc(Cc2ccc(-c3ccc(CN4C[C@@H](C)N[C@H](C)C4)cc3)cc2)cc1 [Example 39-9]	123 nM
Cc1cc(C(N)=O)nn1-c1ccc(Cc2ccc(-c3ccc(C(=O)NCC(C)(C)O)cn3)cc2)cc1 [Example 59, 6-(4-(4-(3-carbamoyl-5-methyl-1H-pyrazol-1-yl)benzyl)phenyl)-N-(2-hydroxy-2-methylpropyl)nicotinamide]	58 nM
Cc1cc(C(N)=O)nn1-c1ccc(Cc2ccc(-c3ccc(CN4CCN(C5COC5)CC4)cn3)cc2)cc1 [Example 33, 5-methyl-1-(4-(4-(5-((4-(oxetan-3-yl)piperazin-1-yl)methyl)pyridin-2-yl)benzyl)phenyl)-1H-pyrazole-3-carboxamide]	138 nM
Cc1nc(C(N)=O)nn1-c1ccc(Cc2ccc(-c3ccc(CN4C[C@H]5CN(C)C[C@H]5C4)cc3)cc2)cc1 [Example 38-3]	35 nM
Cc1cc(C(N)=O)nn1-c1ccc(Cc2ccc(C34CCC(C(=O)N5CCNCC5)(CC3)CC4)cc2)cc1 [Example 42, 5-methyl-1-(4-(4-(4-(piperazine-1-carbonyl)bicyclo[2.2.2]octan-1-yl)benzyl)phenyl)-1H-pyrazole-3-carboxamide]	55 nM
Cc1nnc(-c2cccc(-c3ccc(Cc4ccc(-n5nc(C(N)=O)cc5C)cc4)cc3)c2)o1 [Example 3-7, 5-methyl-1-(4-((3′-(5-methyl-1,3,4-oxadiazol-2-yl)-[1,1′-biphenyl]-4-yl)methyl)phenyl)-1H-pyrazole-3-carboxamide]	499 nM
Cc1nc(C(N)=O)nn1-c1ccc(Cc2ccc(-c3ccc(CN4CCCC(F)C4)cc3)cc2)cc1 (stereo not shown) [Example 39-27]	46 nM
Cc1nc(C(N)=O)nn1-c1ccc(Cc2ccc(-c3ccc(CN4C[C@H]5CCN(C)[C@H]5C4)cc3)cc2)cc1 [Example 39-30]	32 nM
Cc1nc(C(N)=O)nn1-c1ccc(Cc2ccc(-c3ccc(O[C@H]4CCN(C)C4)cc3)cc2)cc1 [Example 62, (S)-5-methyl-1-(4-((4′-((1-methylpyrrolidin-3-yl)oxy)-[1,1′-biphenyl]-4-yl)methyl)phenyl)-1H-1,2,4-triazole-3-carboxamide]	20 nM
Cc1nc(C(N)=O)nn1-c1ccc(Cc2ccc(-c3ccc(CN4CCC(C)(O)C4)cc3)cc2)cc1 (stereo not shown) [Example 39-10]	13 nM
Cc1nc(C(N)=O)nn1-c1ccc(Cc2ccc(-c3ccc(CN4CCC(O)CC4)cc3)cc2)cc1 [Example 39-25]	105 nM
